Patent US6124324A, “Thiophene-ethyl thiourea compounds and use” (Hughes Institute, priority 1999, dated 2000)
Read-outs that look alike come from different tables or passages of the source.

Tests used:
[1] = tested on: HIV-1 strain A17 variant (Y181C, K103N); assay: microbe, parasite or virus in culture; assay type: cell-based
Protocol: (§1) In addition, the anti-HIV activity of the compounds was measured by determining their ability to inhibit the replication of the HIV-1 strains HTLVIIIB, RT-MDR, A17, and A17 variant in peripheral blood mononuclear cells (PBMC) from healthy volunteer donors, using the method described in Uckun et.al., 1998, Antimicrobial Agents and Chemotherapy 42:383.
(§2) Normal human peripheral blood mononuclear cells (PBMNC) from HIV-negative donors were cultured 72 hours in RPMI 1640 supplemented with 20% (v/v) heat-inactivated fetal bovine serum (FBS), 3% interleukin-2,2 mM L-glutairine, 25 mM HEPES, 2 μL, NAHCO, […] gentamicin, and 4 Ag/mL phytohemagglutinin prior to exposure to HIV-1 or other HIV strain. The cells were then infected with virus at a multiplicity of infection (MOI) of 0.1 during a one-hour adsorption period at 37° C. in a humidified 5% CO2 atmosphere. Subsequently, cells were cultured in 96-well microplates (100 μL/well; 2×10^6 cells/mL, triplicate wells) in the presence of various inhibitor concentrations. Aliquots of culture supernatants were removed from the wells on the 7 th day after infection for p24 antigen p24 enzyme immunoassays (EIA), as previously described in Erice et al., 1993, Antimicrob. Ag. Chemotherapy 37:385-838. The applied p24 EIA was the unmodified kinetic assay commercially available from Coulter Corporation/Immunotech, Inc. (Westbrook, Me.).
(§3) Percent inhibition of viral replication was calculated by comparing the p24 values from the test substance-treated infected cells with p24 values from untreated infected cells (i.e, virus controls).
(§4) RT-MDR was obtained through the AIDS Research and Reference Reagent Program, from Dr. Bendan Larder, and is described in Larder et al., 1993, Nature, 365, 451-453.

[2] = tested on: HIV-1 strain RT-MDR (V106A); assay: microbe, parasite or virus in culture; assay type: cell-based; conditions: for IC50: read-out: IC50 RT-MDR (V106A); for effectiveness against RT-MDR versus HTLVIIIB: more effective against RT-MDR than against HTLVIIIB
Protocol: as §1, §2, §3, §4

[3] = Microculture Tetrazolium Assay (MTA), cytotoxicity; assay type: cell-based
Protocol: A Microculture Tetrazolium Assay (MTA), using 2,3-bis(2-methoxy-4-nitro-5-sulfophenyl)-5-[(phenylamino)-carbonyl]-2H-tetrazolium hydroxide (XTT), was performed to evaluate the cytotoxicity of the compounds, using the methods described, for example, in Uckun et.al., 1998, Antimicrobial Agents and Chemotherapy 42:383; and Mao et.al., 1998, Bioorg. Med. Chem. Lett. 8:2213.

[4] = target: T1, purified recombinant HIV RT (Human immunodeficiency virus type 1 group M subtype B, UniProt P04585); assay: Purified RT assay, cell-free Quan-T-RT system (scintillation proximity); assay type: biochemical
T1 construct: purified recombinant HIV RT; purchased Amersham, Arlington Heights, Ill; (Quan-T-RT system)
Protocol: The synthesized compounds were tested for RT inhibitory activity (IC50 [rRT]) against purified recombinant HIV RT using the cell-free Quan-T-RT system (Amersham, Arlington Heights, Ill.), which utilizes the scintillation proximity assay principle as decribed in Bosworth, et al., 1989, Nature 341:167-168. In the assay, a DNA/RNA template is bound to SPA beads via a biotin/strepavidin linkage. The primer DNA is a 16-mer oligo(T) which has been annealed to a poly(A) template. The primer/template is bound to a strepavidin-coated SPA bead.
^3 H-TTP is incorporated into the primer by reverse transcription. In brief, ^3 H-TTP, at a final concentration of 0.5 μCi/sample, was diluted in RT assay buffer (49.5 mM Tris-Cl, pH 8.0, 80 mM KCl, 10 Mm MgCl2, 10 mM DTT, 2.5 mM EGTA, 0.05% Nonidet-P-40), and added to annealed DNA/RNA bound to SPA beads. The compound being tested was added to the reaction mixture at 0.001 μM-100 μM concentrations. […] The reaction was stopped by addition of 0.2 ml of 120 mM EDTA. The samples were counted in an open window using a Beckman LS 7600 instrument and IC50 values were calculated by comparing the measurements to untreated samples.

HIV-1 strain A17 (Y181C) = assay: microbe, parasite or virus in culture; assay type: cell-based; conditions: for IC50: read-out: IC50 A17 (Y181C)
Protocol: as §1, §2
(§5) Percent inhibition of viral replication was calculated by comparing the p24 values from the test substance-treated infected cells with p24 values from untreated infected cells (i.e, virus controls). […]

HIV-1 strain HTLVIIIB [5] = assay: Inhibition of replication of HIV-1 strain HTLVIIIB in PBMC (p24 antigen EIA); assay type: cell-based
Protocol: as §1, §2, §5

HIV-1 strain HTLVIIIB [6] = conditions: earlier publication (Mao et al.), cited from earlier work; for antiviral potency relative to trovirdine: HTLVIIIB; for abrogated the replication of HTLVIIIB: human PBMC
[7] = tested on: NNI-resistant HIV-1 strains; conditions: earlier publication (Mao et al., 1999); cited from earlier work
[8] = inhibition of p24 antigen production in PBMC, read-out: IC50 A17 Varient (Y181C, K103N)
[9] = inhibition of p24 antigen production in PBMC
[10] = XTT cytotoxicity, read-out: CC50 MTA
[11] = IC50 rRT, Table 2; recombinant HIV RT
[12] = Human immunodeficiency virus 1, PBMC, read-out: IC50 A17 Varient (Y181C, K103N)
[13] = Human immunodeficiency virus 1, PBMC
[14] = Human immunodeficiency virus 1, IIIB, inhibition of p24 antigen production in PBMC, read-out: IC50 HTLV IIIB
[15] = IC50 rRT, Table 1 and text; recombinant HIV RT
[16] = Table 1 and text; recombinant HIV RT; read-out: IC90 rRT
[17] = Human immunodeficiency virus 1, IIIB, PBMC, read-out: IC50 HTLV IIIB

Cc1cn([C@H]2C[C@H](N=[N+]=[N-])[C@@H](CO)O2)c(=O)[nH]c1=O [AZT, reference compound]
IC50 [1, 8]: 4 nM
IC50 [2, 9]: 200 nM
CC50 [3, 10]: > 100000 nM
IC50 [4, 11]: > 100000 nM
IC50 (HIV-1 strain A17 (Y181C); [9]): 6 nM

CC(C)Nc1cccnc1N1CCN(C(=O)c2cc3cc(NS(C)(=O)=O)ccc3[nH]2)CC1 [Delavirdine, reference compound]
IC50 [1, 12]: > 100000 nM
IC50 [2, 13]: 400 nM
IC50 (HIV-1 strain HTLVIIIB [5]; [14]): 9 nM
IC50 (HIV-1 strain A17 (Y181C); [13]): 50000 nM

S=C(NCCN1CCCCC1)Nc1ccc(Br)cn1 [HI-172, N-[2-(1-piperidinoethyl)]-N'-[2-(5-bromopyridyl)]thiourea]
IC50 [1, 12]: > 100000 nM
IC50 [2, 13]: > 100000 nM
IC50 (HIV-1 strain HTLVIIIB [5]; [14]): < 1 nM
CC50 [3, 10]: > 100000 nM
antiviral potency relative to trovirdine (HIV-1 strain HTLVIIIB [6]): more potent than trovirdine
abrogated the replication of HTLVIIIB (HIV-1 strain HTLVIIIB [6]): nanomolar concentrations
IC50 [4, 11]: 600 nM
inhibition of replication of NNI-resistant HIV-1 strains [7]: neither compound inhibited the replication
IC50 (HIV-1 strain A17 (Y181C); [13]): > 100000 nM

CN1CCCC1CCNC(=S)Nc1ccc(Br)cn1 (stereo not shown) [HI-206, N-[2-(1-methyl-2-pyrrolidinylethyl)]-N'-[2-(5 bromopyridyl)]thiourea]
IC50 [4, 15]: > 100000 nM
IC90 [4, 16]: > 100000 nM

S=C(NCCN1CCCC1)Nc1ccc(Br)cn1 [HI-230, N-[2-(1-pyrolidylethyl)]-N'-[2-(5-bromopyridyl)]thiourea]
IC50 [4, 15]: 4900 nM
IC90 [4, 16]: > 100000 nM

Fc1ccccc1CCNC(=S)Nc1ccc(Br)cn1 [HI-240, N-[2-(2-fluorophenethyl)]-N'-[2-(5-bromopyridyl)]thiourea]
IC50 [1, 12]: 41000 nM
IC50 [2, 13]: 5 nM
IC50 (HIV-1 strain HTLVIIIB [5]; [14]): < 1 nM
CC50 [3, 10]: > 100000 nM
IC50 (HIV-1 strain A17 (Y181C); [13]): 200 nM

S=C(NCc1ccc2c(c1)OCO2)Nc1ccc(Br)cn1 [HI-257, N-[2-(1-piperonyl)]-N'-[2-(5-bromopyridyl)]thiourea]
IC50 [4, 15]: 700 nM
IC90 [4, 16]: > 100000 nM

S=C(NCCN1CCNCC1)Nc1ccc(Br)cn1 [HI-258, N-[2-(1-piperizinylethyl)]-N'-[2-(5-bromopyridyl)]thiourea]
antiviral potency relative to trovirdine (HIV-1 strain HTLVIIIB [6]): more potent than trovirdine
abrogated the replication of HTLVIIIB (HIV-1 strain HTLVIIIB [6]): nanomolar concentrations
inhibition of replication of NNI-resistant HIV-1 strains [7]: neither compound inhibited the replication

S=C(NCCN1CCOCC1)Nc1ccc(Br)cn1 [HI-276, N-[2-(5-Bromopyridinyl)]-N'-[2-(4-Morpholinoethyl)]thiourea]
IC50 [4, 15]: > 100000 nM
IC90 [4, 16]: > 100000 nM

S=C(NCCc1cnc[nH]1)Nc1ccc(Br)cn1 [HI-436, N-[2-(5-Bromopyridinyl)]-N'-[2-(2-Imidazolylethyl)]thiourea]
IC50 [4, 15]: > 100000 nM
IC90 [4, 16]: > 100000 nM

S=C(NCCc1c[nH]c2ccccc12)Nc1ccc(Br)cn1 [HI-442, N-[2-(5-Bromopyridinyl)]-N'-[2-(3-Indolylethyl)]thiourea]
IC50 [4, 15]: 900 nM
IC90 [4, 16]: > 100000 nM

S=C(NCCc1cccs1)Nc1ccc(Br)cn1 [HI-443, N-[2-(5-Bromopyridinyl)]-N'-[2-(2-Thiophenylethyl)]thiourea]
IC50 ([1]; Human immunodeficiency virus 1, PBMC, read-out: IC50, A17 variant replication): 3260 nM
IC50 [1, 12]: 3260 nM
potency against A17 variant versus HTLVIIIB ([1]; fold lower potency than HTLVIIIB, 10080 min): 100 fold
IC50 [2, 13]: 4 nM
effectiveness against RT-MDR versus HTLVIIIB [2]: ten
effectiveness against RT-MDR versus HTLVIIIB ([2]; 10080 min): 10 times
potency against RT-MDR relative to AZT ([2]; more potent than AZT): 50 times
potency against RT-MDR relative to HI-172 ([2]; more potent than HI-172): 25,000 times
potency against RT-MDR relative to HI-240 ([2]; more potent than HI-240): 1.25 times
potency against RT-MDR relative to MKC-442 ([2]; more potent than MKC-442): 75 times
potency against RT-MDR relative to delavirdine ([2]; more potent than delavirdine): 100 times
potency against RT-MDR relative to nevirapine ([2]; more potent than nevirapine): 1250 times
potency against RT-MDR relative to trovirdine ([2]; more potent than trovirdine): 5 times
IC50 (HIV-1 strain HTLVIIIB [5]; [17]): 30 nM
IC50 (HIV-1 strain HTLVIIIB [5]; Human immunodeficiency virus 1, PBMC, read-out: average IC50, HTLVIIIB replication): 30 nM
IC50 HTLVIIIB relative to HI-172 (HIV-1 strain HTLVIIIB [5]; times higher than IC50 of HI-172): 30 times
IC50 HTLVIIIB relative to trovirdine (HIV-1 strain HTLVIIIB [5]; times higher than IC50 of trovirdine): 5 times
CC50 [3, 10]: > 100000 nM
IC50 [4, 15]: 800 nM
IC50 [4, 11]: 5300 nM
IC90 [4, 16]: 15000 nM
IC90 ([4]; read-out: IC90 rRT; Table 1 and text; recombinant HIV RT): 12000 nM
inhibited recombinant RT in vitro ([4]; recombinant RT in vitro): more than 90%
IC50 (HIV-1 strain A17 (Y181C); [13]): 48 nM
potency against A17 relative to HI-172 (HIV-1 strain A17 (Y181C); more potent than HI-172): 2083 times
potency against A17 relative to HI-240 (HIV-1 strain A17 (Y181C); more potent than HI-240): 4.2 times
potency against A17 relative to delavirdine (HIV-1 strain A17 (Y181C); more potent than delavirdine): 1042 times
potency against A17 relative to nevirapine (HIV-1 strain A17 (Y181C); more potent than nevirapine): 2083 times
potency against A17 relative to trovirdine (HIV-1 strain A17 (Y181C); more potent than trovirdine): 10 times

S=C(NCc1ccco1)Nc1ccc(Br)cn1 [HI-503, N-[2-(5-Bromopyridinyl)]-N'-[2-(2-Furylmethyl)]thiourea]
IC50 [4, 15]: 1200 nM
IC90 [4, 16]: > 100000 nM

CCOCn1c(Cc2ccccc2)c(C(C)C)c(=O)[nH]c1=O [MKC-442, reference compound]
IC50 [2, 13]: 300 nM
CC50 [3]: > 100000 nM

Cc1ccnc2c1NC(=O)c1cccnc1N2C1CC1 [Nevirapine, reference compound]
IC50 [1, 8]: > 100000 nM
IC50 [2, 9]: 5000 nM
IC50 (HIV-1 strain HTLVIIIB [5]; [14]): 34 nM
IC50 (HIV-1 strain A17 (Y181C); [9]): > 100000 nM

S=C(NCCc1ccccn1)Nc1ccc(Br)cn1 [Trovirdine, reference compound]
IC50 [1, 12]: > 100000 nM
IC50 [2, 13]: 20 nM
IC50 (HIV-1 strain HTLVIIIB [5]; [17]): 7 nM
CC50 [3]: > 100000 nM
IC90 [4, 16]: 12000 nM
inhibited recombinant RT in vitro ([4]; recombinant RT in vitro): more than 90%
IC50 (HIV-1 strain A17 (Y181C); [13]): 500 nM
